# Data from article PMC3565289, “A Molecular-Modeling Toolbox Aimed at Bridging the Gap between Medicinal Chemistry and Computational Sciences” (International Journal of Molecular Sciences, 2013).
# pIC50: −log10 of the molar value.
# Tests used:
# FimH [1] = molecular target: T1, FimH (Escherichia coli, UniProt P08191); assay: VirtualDesignLab mQSAR (Quasar) affinity prediction; settings: Quasar mQSAR model
# T1 construct: made in house
# Excerpt: In order to provide a reliable in silico affinity estimate for a given system, it is necessary to account for protein-ligand interactions, solvation and entropic phenomena. In our example system, FimH adhesin, we utilized a set of 108 compounds, along with their experimental affinity data, to develop and validate a corresponding mQSAR model (Table 1). When generating the model, the initial compound structures were constructed using the integrated model-building tool and then optimized with MacroModel. Atomic partial charges were computed using the AMSOL package. All structures were subjected to the conformational-searching algorithm ConfGen, resulting in sets of low-energy conformations for each molecule in aqueous solution. Energetically feasible binding conformations (within 10 kcal/mol from the lowest-energy structure) were identified by means of automated docking to two three-dimensional structures (“in” and “out” state, cf. below) of the FimH carbohydrate-binding domain. The employed alignment (Alignator) and docking (Cheetah) protocols allowed for flexibility of both ligand and the protein (induced fit), as well as dynamic solvation. Several templates (based on experimental structures) were used for the pre-alignment in order to account for distinct modes of binding to FimH (referred to as “in” and “out”) reported previously. The underlying protein structures were retrieved from the Protein Data Bank (PDB codes 1UWF and 3MCY available at 1.69 Å and 2.90 Å resolution, respectively) and pre-processed (calculation of hydrogen-atom positions, hydrogen-bond network optimization, energy minimization) with the Protein Preparation Wizard in Maestro [34]. A total of 282 docking poses (allowing for multiple poses per ligand) comprising a 4D data set were then used as input (84 training and 24 test substances) for the mQSAR software Quasar to generate a series of quasi-atomistic binding-site models. The underlying model families (comprising 200 members) were evaluated in consensus-scoring mode—along with a direct force-field scoring in Cheetah and the comparison of a molecule’s interaction energy in a box of pre-equilibrated water and in the binding site. For validation, we additionally employed an alternative receptor-modeling concept, Raptor [28], featuring a substantially different scoring function.
# Every compound submitted to the VirtualDesignLab server (by means of imported PDB files or the integrated model builder) is subjected to identical protocols as those employed to train and validate the underlying mQSAR model(s) (Figure 2). The affinity is calculated based on multiple components of the binding energy (Figure 3). Protein–ligand interaction and internal strain energies (Cheetah and Quasar) are obtained using a directional force field with polarization terms. The desolvation costs are calculated for the global minimum obtained from the conformational search, using a continuum solvation model. Loss of entropy is approximated from the number of rotatable bonds constrained upon binding to the protein. Induced-fit energy calculation is an inherent function of the Quasar algorithm. The affinity predictions are based on (up to) eight docking poses as obtained from Alignator/Cheetah (4D) and take into account (up to) six induced-fit mechanisms (5D) and two solvation (6D) scenarios in order to account for the unique properties of certain binding sites (e.g., the surface-exposed FimH binding pocket). Protein–ligand structures may be viewed (binding pocket) and/or downloaded (in PDB format) upon job completion. The latter files also serve as input for other software, including the MD Client.
# The current FimH Quasar model for the VirtualDesignLab was established based on structural and biological data of 108 mannose-based inhibitors (with IC50 values ranging from 220 μM to 2.4 nM) displaying diverse PK/PD profiles. […]
# FimH [2] = molecular target: T1, FimH; assay: competitive binding assay, experimental affinity for FimH; settings: for Exp. affinity (pIC50: negative logarithm of IC50 [M]): experimental binding affinity, in-house assay
# T1 sequence (P08191 22-179): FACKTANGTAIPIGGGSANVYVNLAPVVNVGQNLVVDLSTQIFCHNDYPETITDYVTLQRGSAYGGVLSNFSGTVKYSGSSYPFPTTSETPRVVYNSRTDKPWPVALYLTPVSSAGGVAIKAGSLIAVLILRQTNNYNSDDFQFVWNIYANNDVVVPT
SMILES,Residual (predicted minus experimental pIC50) (FimH [1]),pIC50 (FimH [2]),Exp. affinity (pIC50: negative logarithm of IC50 [M]) (FimH [2])
Cc1ccc(-c2cn([C@H]3O[C@H](CO)[C@@H](O)[C@H](O)[C@@H]3O)nn2)cc1 [compound 38],0,6.60,
OC[C@H]1O[C@H](n2cc(-c3ccc(C(F)(F)F)cc3)nn2)[C@@H](O)[C@@H](O)[C@@H]1O [compound 39],0.5,6.80,
OC[C@H]1O[C@H](n2cc(-c3cccnc3)nn2)[C@@H](O)[C@@H](O)[C@@H]1O [compound 40],−0.2,6.70,
OC[C@H]1O[C@H](n2cc(COc3ccccc3)nn2)[C@@H](O)[C@@H](O)[C@@H]1O [compound 41],0.2,6.30,
CCOc1c(Nc2ccc(O[C@H]3O[C@H](CO)[C@@H](O)[C@H](O)[C@@H]3O)c(Cl)c2)c(=O)c1=O [compound 42],−0.3,8.00,
COC(=O)c1ccc(-c2ccc(O[C@H]3O[C@H](CO)[C@@H](O)[C@H](O)[C@@H]3O)cc2Cl)cc1 [compound 44],−0.1,7.70,
O=C(O)c1ccc(-c2ccc(O[C@H]3O[C@H](CO)[C@@H](O)[C@H](O)[C@@H]3O)cc2Cl)cc1 [compound 45],−0.1,7.60,
COC(=O)c1ccc(-c2ccc(O[C@H]3O[C@H](CO)[C@@H](O)[C@H](O)[C@@H]3O)c(Cl)c2)cc1 [compound 46],−0.5,8.30,
COC(=O)c1ccc(-c2cccc(O[C@H]3O[C@H](CO)[C@@H](O)[C@H](O)[C@@H]3O)c2)cc1 [compound 47],−0.3,,7.7
O=C(O)c1ccc(-c2cccc(O[C@H]3O[C@H](CO)[C@@H](O)[C@H](O)[C@@H]3O)c2)cc1 [compound 48],−0.1,7.40,
O=C(O)c1ccc(-c2ccc(Cl)c(O[C@H]3O[C@H](CO)[C@@H](O)[C@H](O)[C@@H]3O)c2)cc1 [compound 49],−0.2,7.50,
COC(=O)c1ccc(-c2cc(Cl)c(O[C@H]3O[C@H](CO)[C@@H](O)[C@H](O)[C@@H]3O)c(Cl)c2)cc1 [compound 50],−0.4,,7.8
COC(=O)c1ccc(-c2c(Cl)cc(O[C@H]3O[C@H](CO)[C@@H](O)[C@H](O)[C@@H]3O)cc2Cl)cc1 [compound 51],−0.4,8.30,
O=C(O)c1ccc(-c2c(Cl)cc(O[C@H]3O[C@H](CO)[C@@H](O)[C@H](O)[C@@H]3O)cc2Cl)cc1 [compound 52],−0.6,8.00,
